Source: patent EP0410244A1, “Leukotriene antagonists” (BAYER AG, priority 1989, dated 1991)

System: LTC₄ induced contraction of guinea-pig ileum
Assay: Inhibition of leukotriene (LTC₄) induced contraction of guinea-pig ileum in vitro
Format: cell-based, guinea-pig (Male Dunkin-Hartley strain)
Conditions: Cavia porcellus
Protocol: The leukotriene antagonist activity of the compounds of this invention is measured by the ability of the compounds to inhibit the leukotriene induced contraction of guinea-pig ileum in vitro as described below.
Five (5) centimeter longitudinal strips of guinea-pig ileum (Male Dunkin-Hartley strain) were bathed in modified Tyrodes buffer, containing 3µM indomethacin, in jacketed 10 mL tissue baths at 37°C and continuously aerated with 95% O₂/5% CO₂. The tissues were connected via cotton sutures to isotonic transducers. The tissues were equilibrated for 60 minutes and 100µM histamine was added to determine the maximal response of the tissues. This was removed by washout to give a steady baseline. Then the test compound, or vehicle control, was added cumulatively in half-log units until a bath concentration of 10µM was reached.
After a further equilibration period of 15 minutes, a concentration response curve to the reference agonist (LTD₄ or LTC₄) was generated. All determinations were carried out in triplicate and observations normalised against the maximal leukotriene response. Least-squares linear regression analysis was then used to calculate the concentration of leukotriene needed to elicit 50% of the maximum response and defined as the EC₅₀. […]
All compounds were measured against LTD₄ as the reference agonists except the compound of Example 65 which were measured against LTC₄.

**Q.** Which Kb does the source give for `CCCCC/C=C\C\C=C/C=C/C=C/[C@@H](Sc1ccc(C(=O)O)cc1)[C@@](C)(O)CCCC(=O)O` [Example 65, 5S-Hydroxy-5-methyl-6R-(4-carboxyphenylthio)eicosa-7E,9E,11Z,14Z-tetraenoic Acid] here?
**A.** 398 nM
